Test results reported in ChEMBL document CHEMBL1152187, “Synthesis of C4-fluorinated solamins and their growth inhibitory activity against human cancer cell lines” (2008).

Experiments:
Format in all cases: functional
[1] = tested on: SNB-75; test: Growth inhibition of human SNB75 cells by sulforhodamine B assay
[2] = tested on: MDA-MB-231; test: Growth inhibition of human MDA-MB-231 cells by sulforhodamine B assay
[3] = tested on: MCF7; test: Growth inhibition of human MCF7 cells by sulforhodamine B assay
[4] = Growth inhibition of human RXF631L cells by sulforhodamine B assay; conditions: RXF 631
[5] = tested on: SF-268; test: Growth inhibition of human SF268 cells by sulforhodamine B assay
[6] = tested on: HCC 2998; test: Growth inhibition of human HCC2998 cells by sulforhodamine B assay
[7] = tested on: MKN-7; test: Growth inhibition of human MKN7 cells by sulforhodamine B assay
[8] = tested on: SNB-78; test: Growth inhibition of human SNB-78 cells by sulforhodamine B assay
[9] = tested on: KM12; test: Growth inhibition of human KM12 cells by sulforhodamine B assay
[10] = tested on: LOX IMVI; test: Growth inhibition of human LOXIMVI cells by sulforhodamine B assay
[11] = tested on: SF-295; test: Growth inhibition of human SF295 cells by sulforhodamine B assay
[12] = tested on: PC-3; test: Growth inhibition of human PC3 cells by sulforhodamine B assay
[13] = Growth inhibition of human BSY1 cells by sulforhodamine B assay; conditions: BSY-1
[14] = tested on: HCT-116; test: Growth inhibition of human HCT116 cells by sulforhodamine B assay
[15] = tested on: NCI-H460; test: Growth inhibition of human NCI-H460 cells by sulforhodamine B assay
[16] = tested on: SK-OV-3; test: Growth inhibition of human SKOV3 cells by sulforhodamine B assay
[17] = tested on: NCI-H226; test: Growth inhibition of human NCI-H226 cells by sulforhodamine B assay
[18] = tested on: MKN-74; test: Growth inhibition of human MKN74 cells by sulforhodamine B assay
[19] = tested on: NCI-H522; test: Growth inhibition of human NCI-H522 cells by sulforhodamine B assay
[20] = tested on: DU-145; test: Growth inhibition of human DU145 cells by sulforhodamine B assay
[21] = tested on: St-4; test: Growth inhibition of human St-4 cells by sulforhodamine B assay
[22] = tested on: DMS-273; test: Growth inhibition of human DMS273 cells by sulforhodamine B assay
[23] = tested on: DMS-114; test: Growth inhibition of human DMS114 cells by sulforhodamine B assay
[24] = Growth inhibition of human HBC4 cells by sulforhodamine B assay
[25] = tested on: A549; test: Growth inhibition of human A549 cells by sulforhodamine B assay
[26] = tested on: ACHN; test: Growth inhibition of human ACHN cells by sulforhodamine B assay
[27] = tested on: OVCAR-3; test: Growth inhibition of human OVCAR-3 cells by sulforhodamine B assay
[28] = Growth inhibition of human MKN1 cells by sulforhodamine B assay; conditions: MKN-1
[29] = tested on: OVCAR-4; test: Growth inhibition of human OVCAR4 cells by sulforhodamine B assay
[30] = tested on: OVCAR-8; test: Growth inhibition of human OVCAR8 cells by sulforhodamine B assay
[31] = tested on: HCT-15; test: Growth inhibition of human HCT15 cells by sulforhodamine B assay
[32] = tested on: HT-29; test: Growth inhibition of human HT-29 cells by sulforhodamine B assay
[33] = tested on: U-251; test: Growth inhibition of human U251 cells by sulforhodamine B assay
[34] = tested on: MKN-45; test: Growth inhibition of human MKN45 cells by sulforhodamine B assay
[35] = tested on: OVCAR-5; test: Growth inhibition of human OVCAR5 cells by sulforhodamine B assay
[36] = tested on: SF-539; test: Growth inhibition of human SF539 cells by sulforhodamine B assay
[37] = tested on: MKN-28; test: Growth inhibition of human MKN28 cells by sulforhodamine B assay
[38] = Growth inhibition of human HBC5 cells by sulforhodamine B assay
[39] = tested on: NCI-H23; test: Growth inhibition of human NCI-H23 cells by sulforhodamine B assay

GI50 [2] [µM]	GI50 [3] [µM]	GI50 [6] [µM]	GI50 [7] [µM]	GI50 [12] [µM]	GI50 [14] [µM]	GI50 [15] [µM]	GI50 [16] [µM]	GI50 [17] [µM]	GI50 [18] [µM]	GI50 [19] [µM]	GI50 [20] [µM]	Structure (SMILES)	GI50 [1] [µM]	GI50 [4] [µM]	GI50 [5] [µM]	GI50 [8] [µM]	GI50 [9] [µM]	GI50 [10] [µM]	GI50 [11] [µM]	GI50 [13] [µM]	other results
> 100	37	> 100	19	84	27	> 100	> 100	40	> 100	16	> 100	CCCCCCCCCCCC[C@@H](O)[C@H]1CC[C@H]([C@H](O)CCCCCCCCCC[C@H](F)CC2=C[C@H](C)OC2=O)O1	58	> 100	> 100	> 100	> 100	97	31	69	GI50 [21]: > 100 µM; GI50 [22]: > 100 µM; GI50 [23]: 0.46 µM; GI50 [24]: > 100 µM; GI50 [25]: > 100 µM; GI50 [26]: > 100 µM; GI50 [27]: > 100 µM; GI50 [28]: > 100 µM; GI50 [29]: > 100 µM; GI50 [30]: > 100 µM; GI50 [31]: > 100 µM; GI50 [32]: 92 µM; GI50 [33]: > 100 µM; GI50 [34]: 43 µM; GI50 [35]: > 100 µM; GI50 [36]: > 100 µM; GI50 [37]: > 100 µM; GI50 [38]: > 100 µM; GI50 [39]: 5.1 µM
> 100	56	> 100	0.96	> 100	2	> 100	> 100	58	> 100	25	> 100	CCCCCCCCCCCC[C@@H](O)[C@H]1CC[C@H]([C@H](O)CCCCCCCCCC[C@@H](F)CC2=C[C@H](C)OC2=O)O1	84	> 100	> 100	> 100	> 100	6.5	37	> 100	GI50 [21]: 74 µM; GI50 [22]: > 100 µM; GI50 [23]: 0.26 µM; GI50 [24]: > 100 µM; GI50 [25]: > 100 µM; GI50 [26]: > 100 µM; GI50 [27]: > 100 µM; GI50 [28]: > 100 µM; GI50 [29]: > 100 µM; GI50 [30]: 62 µM; GI50 [31]: > 100 µM; GI50 [32]: > 100 µM; GI50 [33]: > 100 µM; GI50 [34]: > 100 µM; GI50 [35]: > 100 µM; GI50 [36]: > 100 µM; GI50 [37]: 41 µM; GI50 [38]: > 100 µM; GI50 [39]: 23 µM
> 100	3.9	> 100	0.7	17	3.7	> 100	> 100	29	4.6	3.6	> 100	CCCCCCCCCCCC[C@@H](O)[C@H]1CC[C@H]([C@H](O)CCCCCCCCCC[C@@H](O)CC2=C[C@H](C)OC2=O)O1 [MURISOLIN]	39	40	> 100	78	> 100	1.9	7.3	8.3	GI50 [21]: 41 µM; GI50 [22]: 72 µM; GI50 [23]: < 0.01 µM; GI50 [24]: > 100 µM; GI50 [25]: 96 µM; GI50 [26]: > 100 µM; GI50 [27]: 6.9 µM; GI50 [28]: 20 µM; GI50 [29]: 6.9 µM; GI50 [30]: 38 µM; GI50 [31]: 51 µM; GI50 [32]: > 100 µM; GI50 [33]: 7.3 µM; GI50 [34]: > 100 µM; GI50 [35]: > 100 µM; GI50 [36]: 88 µM; GI50 [37]: 2.8 µM; GI50 [38]: 9.7 µM; GI50 [39]: 0.22 µM

Structure (SMILES)	GI50 [2] [µM]	GI50 [3] [µM]	GI50 [6] [µM]	GI50 [7] [µM]	GI50 [12] [µM]	GI50 [14] [µM]	GI50 [15] [µM]	GI50 [16] [µM]	GI50 [17] [µM]	GI50 [18] [µM]	GI50 [19] [µM]	GI50 [20] [µM]	GI50 [1] [µM]	GI50 [4] [µM]	GI50 [5] [µM]	GI50 [8] [µM]	GI50 [9] [µM]	GI50 [10] [µM]	GI50 [11] [µM]	GI50 [13] [µM]	other results
CCCCCCCCCCCC[C@@H](O)[C@H]1CC[C@H]([C@H](O)CCCCCCCCCCCCC2=C[C@H](C)OC2=O)O1 [REL-SOLAMIN]	> 100	71	> 100	13	> 100	> 100	> 100	> 100	> 100	> 100	58	> 100	> 100	> 100	> 100	> 100	> 100	29	40	> 100	GI50 [21]: > 100 µM; GI50 [22]: > 100 µM; GI50 [23]: 4.3 µM; GI50 [24]: > 100 µM; GI50 [25]: > 100 µM; GI50 [26]: > 100 µM; GI50 [27]: > 100 µM; GI50 [28]: > 100 µM; GI50 [29]: > 100 µM; GI50 [30]: > 100 µM; GI50 [31]: > 100 µM; GI50 [32]: > 100 µM; GI50 [33]: > 100 µM; GI50 [34]: > 100 µM; GI50 [35]: > 100 µM; GI50 [36]: > 100 µM; GI50 [37]: 14 µM; GI50 [38]: > 100 µM; GI50 [39]: 73 µM
